Data from US20190239511A1, “Synergistic Combinations Of Monochloramine And Peroxide Compound, And Methods Of Using The Same For Microbial Control” (Buckman Laboratories International, Inc., priority 2018, published 2019).

Test system: bacteria in 35 wt % corn slurry solution
Test: Bacterial growth control in corn slurry, bacteria count and reduction (Example 2, Table 1 and FIG. 5)
Type: cell-based
Experimental: The effect of combined amounts of hydrogen peroxide and monochloramine at other tested addition amounts on bacterial growth control and their addition timing was further studied using laboratory experiments. For this additional study, laboratory experiments were performed using hydrogen peroxide at dosages of 100 ppm and 200 ppm, and monochloramine (“Oxamine”) at dosages of 25 ppm, 50 ppm, 75 ppm, and 100 ppm. The time between peroxide and monochloramine addition was up to 10 minutes (i.e., 0-10 minutes). All experiments were carried out with 35 wt % corn slurry solution.

Compound | % Reduction (100 ppm H2O2 alone) [%] | Bacteria Count (100 ppm H2O2 alone) | % Reduction (200 ppm H2O2 alone) [%] | Bacteria Count (200 ppm H2O2 alone) | % Reduction (25 ppm Oxamine alone) [%] | Bacteria Count (25 ppm Oxamine alone) | % Reduction (50 ppm Oxamine alone) [%] | Bacteria Count (50 ppm Oxamine alone) | % Reduction (75 ppm Oxamine alone) [%] | Bacteria Count (75 ppm Oxamine alone) | % Reduction (100 ppm Oxamine alone) [%] | Bacteria Count (100 ppm Oxamine alone)
OO [H2O2, hydrogen peroxide] | 0.00 | 5.E+06 | 18.37 | 4.E+06 |  |  |  |  |  |  |  | 
NCl [Oxamine, monochloramine] |  |  |  |  | 98.99 | 5.E+04 | 99.93 | 4.E+03 | 99.97 | 1.E+03 | 99.98 | 9.E+02
